Results on 33 molecules are retold here after article PMC5431371, “Crystal structure-based discovery of a novel synthesized PARP1 inhibitor (OL-1) with apoptosis-inducing mechanisms in triple-negative breast cancer” (Scientific Reports, 2016).

For orientation: IC50 means the concentration needed to halve the response being measured.

The test system of data set [1] is MDA-MB-436 cells. Briefly: Cell viability assay (MTT). The data set is classed as cell-based. The conditions noted are these: Homo sapiens. The protocol:
5 × 10^3 cells were seeded into each well in 96-well microplates and cultured for 24 h. […] After drug treatment, the cell viabilities were detected by MTT assay.

Data set [2] concerns the target T1, Recombinant Human PARP1 (Homo sapiens, UniProt P09874).
T1 construct: purchased Trevigen
Briefly: PARP1 enzymatic inhibition assay (Universal Chemiluminescent PARP Assay Kit). The data set is classed as biochemical. The conditions noted are these: mean ± SD, at least three independent experiments. On the procedure:
The PARP1 enzymatic inhibition assay was performed by using Universal Chemiluminescent PARP Assay Kit (Trevigen, Gaithersburg, MD, USA) according to the manufacturer’s instruction and previous report. Briefly, serial dilutions of inhibitor were added to appropriate wells followed by addition of diluted PARP1 enzyme (0.5 Unit/well). After incubation for 10 min at room temperature, distributing 25 μL of 1X PARP Cocktail into each well and incubating the strip wells at room temperature for 60 min. The strip wells were washed with 1X PBS and 0.1% Triton X-100 for twice. Then 50 µL/well of diluted Strep-HRP was added to each well and incubate at room temperature for 60 min. After another wash with PBS, mixing equal volumes of PeroxyGlow™ A and B together and adding 100 µl per well. Finally, immediately taking the chemiluminescent readings. The IC50 values of PARP1 inhibitors were determined using Prism 6 software (GraphPad, San Diego, CA, USA).

Data set [3] relates to Bax, Bcl-2, Caspase-3. Put plainly: Western blot analysis of apoptotic markers. The data set is classed as cell-based. The conditions noted are these: MDA-MB-436 cells. On the procedure: (§1) Western blot analysis was carried out briefly as previous description. MDA-MB-436 cells were exposed to OL-1 for indicated time. Both floating cells and adherent were collected. The cell pellets were resuspended with RIPA lysis buffer and PMSF (1 mM) (Beyotime, Haimen, Jiangsu, China) and lysed at 4 °C for 1 h. After 12,000 rpm centrifugation for 10 min, the supernatant was collected to determine the protein content by the BCA Protein Assay Kit (CWBIO, Beijing, China). […] After pre-blocking in TBST with 5% non-fat milk or BSA for 1 h, the membranes were incubated with primary antibodies overnight at 4 °C, and subsequently incubated with HRP-conjugated secondary antibody at room temperature for 1–2 h. Positive signals were detected by using ECL as the HRP substrate after washing with TBST solution.
In general terms: In western blotting, separated proteins are transferred to a membrane and probed.

The subject of data set [4] is MDA-MB-436 cells. Briefly: Apoptosis assay (Annexin V-FITC/PI double staining, flow cytometry). The data set is classed as cell-based. The conditions noted are these: MDA-MB-436, 0.25-1 μM, 24 h. On the procedure:
MDA-MB-436 cells (1 × 10^5 per well) were seeded into 6-well microplates in the presence or absence of OL-1 and cultured for 24 h, then incubated with 500 μL Hoechst 33258 staining solution (0.5 μg/mL) for 30 min at 37 °C. After staining, the apoptotic features were observed under fluorescence microscope. Apoptotic ratio was measured by Annexin-V-FLUOS Staining Kit (Roche, Germany) according to the manufacturer’s protocol followed by flow cytometry (FACS) analysis (Becton Dickinson, Franklin Lakes, NJ).

For data set [5], the system named is PARP1 and PAR. Put plainly: Western blot analysis of PARP1 and PAR in treated cells. The data set is classed as cell-based. The conditions noted are these: MDA-MB-436 cells. On the procedure: as §1
Data set [6] deals with MDA-MB-436 xenograft. Put plainly: MDA-MB-436 xenograft tumor model. The data set is classed as in vivo, BALB/c nude mice. The protocol: All experiments protocols used in this study were carried out in accordance with guidelines of the animal ethics committee (Sichuan University). Thirty-two 6–8 weeks-old female BALB/c nude mice (18–20 g) were subcutaneously injected with MDA-MB-436 cells (1 × 10^7 cells/mouse). Until the tumor volumes reached 100 mm^3 (calculated as V = L × W^2/2), the mice were randomly divided into four groups. […] Body weight and the tumor size were determined every day until the end of the study. All mice were sacrificed at the end of drug treatment. The organs of mice such as spleen, liver and kidney were harvested and weighed. Tumor tissues were detached and fixed in 4% paraformaldehyde for immunohistochemistry or lysed for western blotting.
Immunohistochemical analysis was carried out by the method of our previous study. Samples were dehydrated using gradient ethanol, and subsequently paraffin embedded. The paraffin embedded samples were sliced into 5 μm thickness sections. […] Nuclei were counterstained with hematoxylin. The numbers of positive cells were counted in at least 6 fields for each section and statistical analyzed.

Data set [7] has as its system MDA-MB-436 cells. Briefly: Cell migration assay (scratch wound). The data set is classed as cell-based. The conditions noted are these: 24 h. The protocol: MDA-MB-436 cells were cultured in 24-well microplates and scratch-wounded by sterilized pipettes. Then the cells were washed with PBS and cultured with normal medium or OL-1. After 24 h incubation, pictures were taken by phase-contrast microscope.

Where [8] appears, read: MDA-MB-436 cells (BRAC1 mutant breast cancer), mean ± SD, at least three independent experiments, read-out: Anti-cell viability (IC50, μM) MDA-MB-436.
The mark [9] stands for this setting: recombinant human PARP1, read-out: Enzymatic inhibition (IC50, μM) PARP1.
Setting [10] is: high dose 25 mg/kg/d i.p., 14 days, vs Iniparib 100 mg/kg/d and low dose 12.5 mg/kg/d, P < 0.05.

Values joined by “and” are separate entries in the source; they are usually repeats but may differ in a detail not shown here. Identical values can stand only once. Like-named read-outs stand apart in the source and are kept apart here.

T1 sequence (P09874 whole entry): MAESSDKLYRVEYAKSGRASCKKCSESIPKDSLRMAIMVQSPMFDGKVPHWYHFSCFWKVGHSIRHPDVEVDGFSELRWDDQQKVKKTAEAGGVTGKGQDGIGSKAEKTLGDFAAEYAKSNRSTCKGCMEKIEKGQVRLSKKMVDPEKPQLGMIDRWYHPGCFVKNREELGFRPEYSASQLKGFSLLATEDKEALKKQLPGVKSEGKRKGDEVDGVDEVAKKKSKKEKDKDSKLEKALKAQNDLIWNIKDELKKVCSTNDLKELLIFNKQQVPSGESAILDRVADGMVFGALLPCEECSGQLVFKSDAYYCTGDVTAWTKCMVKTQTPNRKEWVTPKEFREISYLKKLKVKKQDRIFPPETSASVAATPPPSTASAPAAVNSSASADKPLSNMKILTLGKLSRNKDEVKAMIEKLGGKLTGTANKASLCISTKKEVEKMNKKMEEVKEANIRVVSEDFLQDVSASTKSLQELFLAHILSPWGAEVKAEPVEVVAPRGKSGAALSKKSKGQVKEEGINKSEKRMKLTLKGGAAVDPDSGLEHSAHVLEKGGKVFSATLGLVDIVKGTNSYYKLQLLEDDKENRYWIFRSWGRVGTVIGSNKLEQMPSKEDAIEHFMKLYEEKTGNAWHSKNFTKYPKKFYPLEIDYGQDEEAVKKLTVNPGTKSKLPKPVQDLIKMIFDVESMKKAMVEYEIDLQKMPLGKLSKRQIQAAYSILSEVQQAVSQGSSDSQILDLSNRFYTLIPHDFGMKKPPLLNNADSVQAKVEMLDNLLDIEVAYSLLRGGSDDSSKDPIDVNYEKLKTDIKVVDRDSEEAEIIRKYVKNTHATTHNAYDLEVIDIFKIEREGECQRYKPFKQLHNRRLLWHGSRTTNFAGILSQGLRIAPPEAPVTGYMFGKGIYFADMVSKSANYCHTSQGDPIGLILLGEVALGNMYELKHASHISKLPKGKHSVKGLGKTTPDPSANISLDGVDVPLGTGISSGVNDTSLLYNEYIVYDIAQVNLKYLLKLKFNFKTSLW

In the case of `CN(C)CCC=C1c2ccccc2CCc2ccccc21` [11d (PA-10), 3-(10,11-dihydro-5H-dibenzo[a,d][7]annulen-5-ylidene)-N,N-dimethylpropan-1-amine], the IC50 was determined as 5.44 ± 1.01 µM in data set [1] (setting [8]) and 1.65 ± 0.25 µM in data set [2] (setting [9]).

Consider `CN(C)CC/C=C1/c2ccccc2COc2ccc(CC(=O)NN)cc21` [33e (OL-1)], for which, in data set [3], the Bax expression entry is reported as “upregulated”, the Bcl-2 expression result is given as “downregulated” and the “cleavage of caspase-3” value was “increased”. In addition, the IC50 in data set [1] (BRCA1 mutant MDA-MB-436 cells, MTT, Fig. 11A, read-out: anti-proliferative effects IC50) was 5.14 µM. In data set [1] (setting [8]), the half-inhibitory concentration (IC50) stood at 0.736 ± 0.223 µM. Moreover, the apoptotic cell ratio entry in data set [4] is “obviously increased in a concentration-dependent manner”. For the same molecule, the “expression of PAR (western blot)” value in data set [5] is reported as “decreased”. Moreover, the “activity of PARP (western blot)” value in data set [5] (no cleavage of PARP) is reported as “significantly inhibited”. Moreover, the “loss of body weight” value in data set [6] (25 mg/kg/d i.p., during the 14 days of treatment, P < 0.01) was determined as 10.05%. The “liver, spleen and kidney weights” value in data set [6] (OL-1 treated groups (12.5 and 25 mg/kg/d i.p.)) was “not changed”. Moreover, in data set [6] (setting [10]), the tumor volumes entry is listed as “lower than the positive control” and the tumor weights entry is reported as “lower than the positive control”. Moreover, the “positive ratio of Ki-67 in tumor tissues” value in data set [6] (immunohistochemistry, compared to the control group) was “significantly reduced”. Also, the “decrease of body weights” value in data set [6] (low dose 12.5 mg/kg/d i.p., 14 days) was “not obvious”. Besides, the cell migration result in data set [7] is recorded as “could inhibit cell migration”. Besides, the half-maximal inhibitory concentration (IC50) in data set [2] (Enzymatic inhibition (IC50, μM) PARP1, recombinant human PARP1) was determined as 0.079 ± 0.013 µM.

For `CNCC=C1c2ccccc2CCc2ccccc21` [Compound 11a], the IC50 in data set [2] (setting [9]) is more than 20 µM.

For `CN(C)CC=C1c2ccccc2CCc2ccccc21` [Compound 11b], the values for the IC50 in data set [1] (setting [8]) and in data set [2] (setting [9]) were more than 20 µM and 16.2 ± 1.24 µM, respectively.

Consider `CNCCC=C1c2ccccc2CCc2ccccc21` [Compound 11c], for which the IC50 is more than 20 µM in data set [1] (setting [8]); 4.21 µM and 14.2 µM in data set [2] (setting [9]).

As for `CNCCCC=C1c2ccccc2CCc2ccccc21` [Compound 11e], in data set [2] (setting [9]), the half-maximal inhibitory concentration (IC50) is more than 20 µM.

As to `CN(C)CCCC=C1c2ccccc2CCc2ccccc21` [Compound 11f], the half-maximal inhibitory concentration (IC50) in data set [2] (setting [9]) was more than 20 µM.

As to `C(=C1c2ccccc2CCc2ccccc21)c1ccccc1` [Compound 15a], the IC50 in data set [2] (setting [9]) was more than 20 µM.

Turning to `Fc1ccc(C=C2c3ccccc3CCc3ccccc32)cc1` [Compound 15b], in data set [2] (setting [9]), the IC50 was more than 20 µM.

With `Clc1ccc(C=C2c3ccccc3CCc3ccccc32)cc1` [Compound 15c], the 50% inhibitory concentration (IC50) in data set [2] (setting [9]) is more than 20 µM.

With `Brc1ccc(C=C2c3ccccc3CCc3ccccc32)cc1` [Compound 15d], the IC50 in data set [2] (setting [9]) was more than 20 µM.

With `Cc1ccc(C=C2c3ccccc3CCc3ccccc32)cc1` [Compound 15e], the IC50 in data set [2] (setting [9]) is more than 20 µM.

For `CN(C)CC=C1c2ccccc2COc2ccccc21` [Compound 19a], the IC50 in data set [1] (setting [8]) was more than 20 µM; in data set [2] (setting [9]), 13.2 ± 2.33 µM.

As for `CN(C)CCC=C1c2ccccc2COc2ccccc21` [Compound 19b], in data set [2] (setting [9]), the IC50 turned out to be 0.75 ± 0.27 µM.

In the case of `CN(C)CCCC=C1c2ccccc2COc2ccccc21` [Compound 19c], the IC50 in data set [2] (setting [9]) was more than 20 µM.

With `CN(C)CC=C1c2ccccc2CSc2ccccc21` [Compound 23a], the IC50 is more than 20 µM in data set [1] (setting [8]) and 19.2 ± 3.05 µM in data set [2] (setting [9]).

Regarding `CN(C)CCC=C1c2ccccc2CSc2ccccc21` [Compound 23b], the values for the 50% inhibitory concentration (IC50) in data set [1] (setting [8]) and in data set [2] (setting [9]) were 17.9 ± 2.11 µM and 1.04 ± 0.17 µM, respectively.

Regarding `CN(C)CCCC=C1c2ccccc2CSc2ccccc21` [Compound 23c], the concentration for half-maximal inhibition (IC50) in data set [2] (setting [9]) is more than 20 µM.

As for `CN(C)CC=C1c2ccccc2Cc2ccccc21` [Compound 26a], in data set [2] (setting [9]), the concentration for half-maximal inhibition (IC50) is more than 20 µM.

`CN(C)CCC=C1c2ccccc2Cc2ccccc21` [Compound 26b]: the results for the IC50 in data set [1] (setting [8]) and in data set [2] (setting [9]) were more than 20 µM and 17.9 ± 2.46 µM, respectively.

For the molecule `CN(C)CCCC=C1c2ccccc2Cc2ccccc21` [Compound 26c], the IC50 in data set [2] (setting [9]) was more than 20 µM.

For `CN(C)CC=C1c2ccccc2Oc2ccccc21` [Compound 28a], the IC50 in data set [2] (setting [9]) was more than 20 µM.

With `CN(C)CCC=C1c2ccccc2Oc2ccccc21` [Compound 28b], the IC50 in data set [2] (setting [9]) was more than 20 µM.

Take `CN(C)CCCC=C1c2ccccc2Oc2ccccc21` [Compound 28c]: the IC50 in data set [2] (setting [9]) was more than 20 µM.

For the molecule `CN(C)CC/C=C1/c2ccccc2COc2ccc(CC(=O)O)cc21` [Compound 31], the IC50 was more than 20 µM in data set [1] (setting [8]) and 11.2 ± 1.16 µM in data set [2] (setting [9]).

As for `COC(=O)Cc1ccc2c(c1)C(=CCCN(C)C)c1ccccc1CO2` [Compound 33a], the 50% inhibitory concentration (IC50) was more than 20 µM in data set [1] (setting [8]); 9.11 µM and 19.1 µM in data set [2] (setting [9]).

On to `CCOC(=O)Cc1ccc2c(c1)C(=CCCN(C)C)c1ccccc1CO2` [Compound 33b], for which, in data set [2] (setting [9]), the IC50 is more than 20 µM.

For `CC(C)NC(=O)Cc1ccc2c(c1)C(=CCCN(C)C)c1ccccc1CO2` [Compound 33j], the IC50 in data set [1] (setting [8]) amounted to 8.23 ± 1.56 µM; in data set [2] (setting [9]), 7.35 ± 1.32 µM.

For the molecule `CN(C)CCC=C1c2ccccc2COc2ccc(CC(=O)NCCO)cc21` [Compound 33k], the IC50 in data set [1] (setting [8]) is more than 20 µM; in data set [2] (setting [9]) it was 19.1 ± 2.16 µM.

Regarding `CN(C)CCC=C1c2ccccc2COc2ccc(CC(=O)NC3CC3)cc21` [Compound 33n], in data set [2] (setting [9]), the IC50 was more than 20 µM.

Consider `COCCCNC(=O)Cc1ccc2c(c1)C(=CCCN(C)C)c1ccccc1CO2` [Compound 33o], for which the half-maximal inhibitory concentration (IC50) in data set [2] (setting [9]) was more than 20 µM.

For `NC(=O)c1ccc(I)c([N+](=O)[O-])c1` [Iniparib, reference compound], the half-inhibitory concentration (IC50) in data set [1] (setting [8]) came out at 14.3 ± 1.56 µM. The liver weights entry in data set [6] (100 mg/kg/d, 14 days, P < 0.01) is “significantly decreased”. In addition, the spleen weights entry in data set [6] (100 mg/kg/d, 14 days, P < 0.05) was “affected”.

`O=C(c1cc(Cc2n[nH]c(=O)c3ccccc23)ccc1F)N1CCN(C(=O)C2CC2)CC1` [Olaparib, reference compound]: the IC50 in data set [1] (MDA-MB-436, read-out: Anti-cell viability (IC50, μM) MDA-MB-436) came to 1.12 ± 0.77 µM.
